# Source: patent US9073820B2, “Pharmaceutical compositions comprising napthamides” (OREGON HEALTH & SCIENCE UNIVERSITY, priority 2011, dated 2015)
# Legend:
# [1] = tested on: MDA-MB-231 (human breast cancer cells); assay: MTT cell growth inhibition, 72 h, MDA-MB-231; format: cell-based; conditions: MDA-MB-231, 72 h, read-out: MDA-MB-231 (GI50)
# Method: (§1) A549 (human lung cancer cells), MCF-7 (human breast cancer cells), MDA-MB-231 (human breast cancer cells) and MDA-MB-468 cells (human breast cancer cells) were maintained in Dulbecco's modified Eagle medium (DMEM, Invitrogen, Carlsbad, Calif.) supplemented with 10% (v/v) fetal calf serum (Sigma, St. Louis, Mo.), 10 μg/mL penicillin and 10 μg/mL streptomycin (Invitrogen, Carlsbad, Calif.) at 37° C. under 5% CO2. On the day of experiment, different concentrations of the drugs (final concentration 10^−8-10^−4 M) in duplicates were added to the cells and the cells were further incubated for 72 h. Then, the number of live cells was quantified by 3-(4,5-dimethyl-2-thiazolyl)-2,5-diphenyl-2H-tetrazolium bromide (MTT reagent, Sigma, St. Louis, Mo.).
# (§2) The amount of reduced MTT formazan generated by live cells was determined by its absorbance at 570 nm after subtracting the background absorbance at 690 nm. The percent of cell growth was expressed as (A570(treated)−A570(initial))/(A570(vehicle treated)−A570(initial))*100, where A570(initial) represents initial cell population when drugs are added. The GI50 were derived from non-linear regression analysis of the dose-response curve using Prism 4.0 (GraphPad). […] Data were presented as mean±SD of at least two measurements in duplicates unless noted.
# [2] = tested on: A549 (human lung cancer cells); assay: MTT cell growth inhibition, 72 h, A549; format: cell-based; conditions: A549, 72 h, read-out: A549 (GI50)
# Method: as §1, §2
# [3] = Maximum tolerated dose of Compound 4 (body weight); format: in vivo
# Method: The maximum tolerated dose (MTD) of compound 4 was evaluated in nude mice. In this study 4 groups were established, each with five mice per group. The compound was formulated in a suspension of 5% Tween-80/H2O. Compound 4 was administered orally at dose levels of 120, 60, and 30 mg/kg as QD for five days. The body weight was measured daily for a total of 11 days.
compound,measurement,setting,value
NCCCOc1cc2ccccc2cc1C(=O)NCCCOc1cc2ccccc2cc1C(=O)Nc1ccc(Cl)cc1O [Compound 4],GI50,[1],230 ± 6 nM
same,GI50,[2],300 nM
same,effect on mouse body weight,"[3]; PO 120, 60, 30 mg/kg QD for five days, body weight 11 days",no different from vehicle
same,tolerability,"[3]; doses as high as 120 mg/kg per os, QD for five days",well-tolerated
